Converted amounts (≈) assume the structure as drawn. Like-named read-outs stand apart in the source and are kept apart here.
Columns and labels:
[1] = test system: Helicobacter pylori; assay: Viability of H. pylori after 1 hour with FFA or MG in Brucella broth (plate count, Example 1, Table 1); type: cell-based; details: for Effect on test strains of H. pylori: up to 5 mM, three strains; for Reduction in number of viable H. pylori cells (CFU/mL): 1 hour, 37° C.; for Reductions in cell numbers: test strains HP-2, HP-4, HP-5, 1 hour incubation
[2] = test system: Helicobacter pylori; assay: Viability of H. pylori after 1 hour in prototype nutritional compositions containing FFA or MG (Example 3, Table 6); type: cell-based, Helicobacter pylori (ATCC 43629); details: for Change in viable cell number: 1 hour; for Inhibition in nutritional compositions: levels as high as 20 mM; for Reductions in viability of H. pylori: 10 mM for 1 hour
[3] = test system: Helicobacter pylori; assay: Minimal inhibitory concentration (MIC) for H. pylori (Example 5); type: cell-based
[4] = test system: Helicobacter pylori; type: cell-based, Helicobacter pylori (HP-2, HP-4, HP-5); details: for Frequency of resistance / Resistant variants of H. pylori: concentrations as low as two times the MIC; for Frequency of resistant mutants (number of spontaneous mutants): ~1 × 10^8 CFU; for Frequency of innate resistance compared with MG and FFA: H. pylori strains, Table 7
[5] = test system: Helicobacter felis; assay: H. felis infected mouse model (urease activity and histology of gastric tissue); type: in vivo, Helicobacter felis in adult mice
From the text: The restricted host range of Helicobacter pylori has hampered the development of a widely accepted animal model of H. pylori infection. […] Other animal models of Helicobacter infection have been described based on bacteria similar to H. pylori that have been found in the gastric mucosa of various animals such as the ferret, cat, and monkey. One such model involves the inoculation of adult mice with Heicobacter felis (Fox, J. G., J. C. Murphy, N. S. Taylor, A. Lee, Z. Kabob, and L. Pappo., Local and systemic immune responses in murine Helicobacter felis active chronic gastritis., Infect. Immun. 1993; 61:2309-2315; Dick-Hegedus, E., and A. Lee. Use of a mouse model to examine anti-Helicobacter pylori agents., Scand. J. Gastroenterol. 1991;26:909-915). Preliminary studies were conducted to evaluate the anti-infective activity of MG and FFA against Helicobacter infection in vivo using the H. felis infected mouse model. […] Two weeks later mice were randomized into treatment groups and maintained on liquid diet alone or the same diet supplemented with C10:0 MG or C12:0 MG at a level of 1,5, or 10 mM. Gastric colonization with H. felis in mice was determined 1 and 3 weeks later by evaluation of urease activity ([…]. Barody, A. Gal, and A. Lee., Campylobacter pyloridis gastritis I: Detection of urease as a marker of bacterial colonization and gastritis. Am. J. Gastroenterol. 1987; 82: 292-296) and histopathological assessment of bacterial infection in gastric tissues.

[6] = test system: H. pylori; details: reported in literature; cited from earlier work
[7] = Nutrament (Formulation II), 20 mM
[8] = Sustacal (Formulation I), 10 mM
[9] = Sustacal (Formulation I), 20 mM
[10] = Ultracal (Formulation III), 5 mM
[11] = Ultracal (Formulation III), 10 mM
[12] = Ultracal (Formulation III), 20 mM
[13] = Nutrament (Formulation II), 5 mM
[14] = Nutrament (Formulation II), 10 mM
[15] = Helicobacter pylori, Table 7, read-out: MIC

Row | SMILES | Change in viable cell number ([2]; Sustacal (Formulation I), 5 mM) [LOG CFU/mL] | Change in viable cell number [2, 8] [LOG CFU/mL] | Change in viable cell number [2, 10] [LOG CFU/mL] | Change in viable cell number [2, 11] [LOG CFU/mL] | Change in viable cell number [2, 12] [LOG CFU/mL] | Reductions in cell numbers [1] | Reductions in viability of H. pylori [2] [fold] | Change in viable cell number [2, 13] [LOG CFU/mL] | Change in viable cell number [2, 14] [LOG CFU/mL] | Frequency of resistant mutants (number of spontaneous mutants) ([4]; strain 43579, 2 × MIC) | Frequency of resistant mutants (number of spontaneous mutants) ([4]; strain 43579, 5 × MIC) | Frequency of resistant mutants (number of spontaneous mutants) ([4]; strain 43579, 10 × MIC) | Frequency of resistant mutants (number of spontaneous mutants) ([4]; strain 43629, 2 × MIC) | Frequency of resistant mutants (number of spontaneous mutants) ([4]; strain 43629, 5 × MIC) | Frequency of resistant mutants (number of spontaneous mutants) ([4]; strain 43629, 10 × MIC) | Frequency of resistant mutants (number of spontaneous mutants) ([4]; strain 49503, 2 × MIC) | Frequency of resistant mutants (number of spontaneous mutants) ([4]; strain 49503, 5 × MIC) | Frequency of resistant mutants (number of spontaneous mutants) ([4]; strain 49503, 10 × MIC) | also measured
1 | CCCCCCCCCC(=O)O [Capric Acid, capric acid, reference compound] | 0.00 | 0.00 | 0.03 | -0.03 | -0.33 |  |  |  |  |  |  |  |  |  |  |  |  |  | Effect on test strains of H. pylori [1]: None of the test strains of H. pylori were affected; Change in viable cell number [2, 7]: -0.08 LOG CFU/mL; Change in viable cell number [2, 9]: -0.09 LOG CFU/mL; Inhibition in nutritional compositions [2]: not inhibitory
2 | CCCCCCCC(=O)O [Caprylic Acid, caprylic acid, reference compound] | 0.00 | 0.00 | 0.06 | -0.20 | -0.81 |  |  |  |  |  |  |  |  |  |  |  |  |  | Effect on test strains of H. pylori [1]: None of the test strains of H. pylori were affected; Change in viable cell number [2, 7]: -0.21 LOG CFU/mL; Change in viable cell number [2, 9]: 0.02 LOG CFU/mL; Inhibition in nutritional compositions [2]: not inhibitory
3 | CCCCCCCCCC(=O)OCC(O)CO (centres unmarked) [Monocaprin, monocaprin] | -3.78 | -3.91 | -4.40 | -4.40 |  | ≥ 10,000 fold | ≥ 1000 | -4.00 | -4.14 | < 1 | < 1 | < 1 | < 1 | < 1 | < 1 | < 1 | < 1 | < 1 | Reduction in number of viable H. pylori cells (CFU/mL) ([1]; ATCC #43579, 1 mM): > 100,000 fold; Reduction in number of viable H. pylori cells (CFU/mL) ([1]; ATCC #43629, 1 mM): > 60,000 fold; Reduction in number of viable H. pylori cells (CFU/mL) ([1]; ATCC #49503, 1 mM): > 30,000 fold; MIC ([3]; Table 7): 60.0 µg/mL (≈ 244 µM); MIC ([3]; preliminary studies): approximately 60 mg/L; Frequency of resistance [4]: < 1×10^-8; Resistant variants of H. pylori [4]: no resistant variants of H. pylori were found; Histology score ([5]; 10 mM in diet, three weeks): remained lower; Numbers of urease positive and histology positive mice ([5]; diet, three weeks after initiation of treatment): comparable to the number observed in the infected control group (~80-100%); Number of urease and histology positive mice ([5]; liquid diet with MG at 1, 5 or 10 mM, 1 week of treatment): dose-related reductions in the number of urease and histology positive mice; Reduction in H. felis infection ([5]; second study, daily intragastric gavage 1.4 or 2.8 mg/day, 1 or 3 weeks): no significant reduction in H. felis infection; Level of infection (histology score) ([5]; urease positive mice vs control, diet, 1 week): Lower levels of infection
4 | CCCCCCCC(=O)OCC(O)CO (centres unmarked) [Monocaprylin, monocaprylin] | 0.37 | -3.44 | 0.00 | -3.64 | -4.46 | ≥ 1000 fold | ≥ 1000 | -4.23 | -4.23 |  |  |  |  |  |  |  |  |  | Reduction in number of viable H. pylori cells (CFU/mL) ([1]; ATCC #43579, 5 mM): > 4,000 fold; Reduction in number of viable H. pylori cells (CFU/mL) ([1]; ATCC #43629, 5 mM): > 3,000 fold; Reduction in number of viable H. pylori cells (CFU/mL) ([1]; ATCC #49503, 5 mM): > 40,000 fold
5 | CCCCCCCCCCCC(=O)OCC(O)CO (centres unmarked) [Monolaurin, monolaurin] | -3.41 | -3.77 | -3.04 | -4.40 |  | ≥ 10,000 fold | ≥ 1000 | -4.23 | -3.87 | < 1 | < 1 | < 1 | < 1 | < 1 | < 1 | < 1 | < 1 | < 1 | Reduction in number of viable H. pylori cells (CFU/mL) ([1]; ATCC #43579, 1 mM): > 100,000 fold; Reduction in number of viable H. pylori cells (CFU/mL) ([1]; ATCC #43629, 1 mM): > 50,000 fold; Reduction in number of viable H. pylori cells (CFU/mL) ([1]; ATCC #49503, 1 mM): > 30,000 fold; MIC ([3]; Table 7): 15.0 µg/mL (≈ 54.7 µM); MIC ([3]; preliminary studies): ~15 µg/mL (≈ 54.7 µM); Frequency of resistance [4]: < 1×10^-8; Resistant variants of H. pylori [4]: no resistant variants of H. pylori were found
6 | CCCCC/C=C\C/C=C\C/C=C\C/C=C\CCCC(=O)O [arachidonic acid] |  |  |  |  |  |  |  |  |  |  |  |  |  |  |  |  |  |  | Inhibitory effect on H. pylori [6]: inhibitory effect on H. pylori
7 | Cc1ncc([N+](=O)[O-])n1CCO [metronidazole, reference compound] |  |  |  |  |  |  |  |  |  |  |  |  | 791 | < 1 | < 1 | > 1000 | 48 | < 1 | MIC [3, 15]: 2 µg/mL (≈ 11.7 µM); Frequency of innate resistance compared with MG and FFA [4]: consistently higher; Frequency of resistant mutants (number of spontaneous mutants) ([4]; strain 43679 (so in the source), 2 × MIC): > 1000; Frequency of resistant mutants (number of spontaneous mutants) ([4]; strain 43679 (so in the source), 5 × MIC): 862; Frequency of resistant mutants (number of spontaneous mutants) ([4]; strain 43679 (so in the source), 10 × MIC): 518
8 | CN(C)C1C(=O)C(C(N)=O)=C(O)C2(O)C(=O)C3=C(O)c4c(O)cccc4C(C)(O)C3CC12 (centres unmarked) [tetracycline, reference compound] |  |  |  |  |  |  |  |  |  | TNTC | TNTC | < 1 | > 1000 | 242 | < 1 | 148 | < 1 | < 1 | MIC [3, 15]: 0.1 µg/mL (≈ 0.225 µM); Frequency of innate resistance compared with MG and FFA [4]: consistently higher
9 | CC/C=C\C/C=C\C/C=C\CCCCCCCC(=O)O [ω-3 linolenic acid] |  |  |  |  |  |  |  |  |  |  |  |  |  |  |  |  |  |  | Inhibitory effect on H. pylori [6]: inhibitory effect on H. pylori

Reference: patent publication US5660842A, “Inhibition of helicobacter” (Bristol-Myers Squibb Company, priority 1995, dated 1997)
